Test results taken from patent publication US20250236611A1, “PYRAZOLE COMPOUNDS AND USES THEREOF” (ALCON INC., priority 2021, published 2025).

Legend:
Format in all cases: biochemical
Conditions in all cases: 10 nM JAK enzyme, 800 nM Abl peptide, room temperature 75 min
[1] = biological target: T1, JAK3 (Homo sapiens, UniProt P52333); assay: JAK assay (KINASE-GLO luminescent kinase assay), JAK3
T1 sequence (P52333 1-1124): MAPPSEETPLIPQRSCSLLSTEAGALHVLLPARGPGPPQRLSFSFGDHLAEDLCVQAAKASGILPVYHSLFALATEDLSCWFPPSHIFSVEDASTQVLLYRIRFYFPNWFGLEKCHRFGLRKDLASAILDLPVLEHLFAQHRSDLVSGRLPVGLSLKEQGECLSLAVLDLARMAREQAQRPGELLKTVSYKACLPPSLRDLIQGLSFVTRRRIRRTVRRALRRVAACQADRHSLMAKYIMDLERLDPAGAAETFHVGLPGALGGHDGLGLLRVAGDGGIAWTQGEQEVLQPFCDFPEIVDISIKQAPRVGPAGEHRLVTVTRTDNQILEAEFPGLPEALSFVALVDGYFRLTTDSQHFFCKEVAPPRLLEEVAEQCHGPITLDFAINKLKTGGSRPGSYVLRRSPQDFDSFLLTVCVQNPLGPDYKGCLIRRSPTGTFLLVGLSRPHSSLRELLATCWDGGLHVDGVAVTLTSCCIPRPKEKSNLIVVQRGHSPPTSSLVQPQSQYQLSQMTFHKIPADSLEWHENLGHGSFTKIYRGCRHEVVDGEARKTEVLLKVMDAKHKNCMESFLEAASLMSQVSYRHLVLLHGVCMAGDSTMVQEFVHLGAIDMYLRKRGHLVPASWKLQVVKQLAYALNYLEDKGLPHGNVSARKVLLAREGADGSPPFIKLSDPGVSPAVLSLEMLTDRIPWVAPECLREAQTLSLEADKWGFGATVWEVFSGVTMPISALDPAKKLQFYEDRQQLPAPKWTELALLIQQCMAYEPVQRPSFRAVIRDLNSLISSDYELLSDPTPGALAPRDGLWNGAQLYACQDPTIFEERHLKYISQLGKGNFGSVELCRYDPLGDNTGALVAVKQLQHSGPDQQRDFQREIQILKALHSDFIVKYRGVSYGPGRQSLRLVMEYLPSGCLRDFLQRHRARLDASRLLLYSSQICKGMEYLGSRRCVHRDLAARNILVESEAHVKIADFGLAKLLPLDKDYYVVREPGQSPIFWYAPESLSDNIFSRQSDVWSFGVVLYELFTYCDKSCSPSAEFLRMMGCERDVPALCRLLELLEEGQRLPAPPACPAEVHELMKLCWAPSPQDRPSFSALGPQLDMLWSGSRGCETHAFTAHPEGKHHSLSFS
Method: (§1) All compounds were initially prepared as 10 mM stocks in anhydrous dimethylsulfoxide (DMSO). A 20 μL aliquot of the 10 mM solutions was transferred to individual wells in column 1 of a 96-well polypropylene microtiter plate (Corning #3363) and diluted with DMSO to give a final compound concentration of 4 mM. Test compounds were then serially diluted 1:5 in DMSO for an 11-point concentration response and further diluted in the assay buffer bringing all compound concentrations to a final range of 100 μM to 10 pM in 2.5% DMSO. The assay was performed in white 96-well, flat-bottom, half-area, non-binding assay plate (Corning #3642) in assay buffer consisting of 20 mM HEPES (pH 7.5), 10 mM MgCl2*6H2O, 100 μM sodium orthovanadate, 0.05% CHAPS and 0.1% bovine serum albumin. A 10 μL aliquot of compound from each well of the intermediate dilution plate and 20 μL of a 2×JAK substrate/enzyme solution containing acceptor substrate (800 nM Abl peptide), JAK enzyme (10 nM JAK1, JAK2, JAK3, or TYK2), and 1,4-Dithiothreitol (DTT, 2 μM) were added to all wells. The reaction was initiated by the addition of 10 μL of 4× stock solution ATP (2 μM). Reactions were thoroughly mixed manually, covered and allowed to incubate at room temperature for 75 min. Protein kinase activity was quantitated using Promega's KINASE-GLO™ luminescent Kinase Assay Kit according to the manufacturer's directions. ATP concentrations remaining in Test wells following the termination of the enzymatic reaction were compared against control wells containing equivalent amounts of DMSO containing no inhibitor (CTRL). […] Percent of Control (POC) values were determined for each concentration of compound tested according to the equation:
(§2) [formula] • IC50 values were calculated using the following 4-parameter logistic curve-fitting algorithm:
(§3) [formula] • IC50 values were converted to Ki values using the Cheng-Prusoff Equation: […]

[2] = biological target: JAK2 (Homo sapiens, UniProt O60674); assay: JAK assay (KINASE-GLO luminescent kinase assay), JAK2
Chain of JAK2 (O60674 whole entry): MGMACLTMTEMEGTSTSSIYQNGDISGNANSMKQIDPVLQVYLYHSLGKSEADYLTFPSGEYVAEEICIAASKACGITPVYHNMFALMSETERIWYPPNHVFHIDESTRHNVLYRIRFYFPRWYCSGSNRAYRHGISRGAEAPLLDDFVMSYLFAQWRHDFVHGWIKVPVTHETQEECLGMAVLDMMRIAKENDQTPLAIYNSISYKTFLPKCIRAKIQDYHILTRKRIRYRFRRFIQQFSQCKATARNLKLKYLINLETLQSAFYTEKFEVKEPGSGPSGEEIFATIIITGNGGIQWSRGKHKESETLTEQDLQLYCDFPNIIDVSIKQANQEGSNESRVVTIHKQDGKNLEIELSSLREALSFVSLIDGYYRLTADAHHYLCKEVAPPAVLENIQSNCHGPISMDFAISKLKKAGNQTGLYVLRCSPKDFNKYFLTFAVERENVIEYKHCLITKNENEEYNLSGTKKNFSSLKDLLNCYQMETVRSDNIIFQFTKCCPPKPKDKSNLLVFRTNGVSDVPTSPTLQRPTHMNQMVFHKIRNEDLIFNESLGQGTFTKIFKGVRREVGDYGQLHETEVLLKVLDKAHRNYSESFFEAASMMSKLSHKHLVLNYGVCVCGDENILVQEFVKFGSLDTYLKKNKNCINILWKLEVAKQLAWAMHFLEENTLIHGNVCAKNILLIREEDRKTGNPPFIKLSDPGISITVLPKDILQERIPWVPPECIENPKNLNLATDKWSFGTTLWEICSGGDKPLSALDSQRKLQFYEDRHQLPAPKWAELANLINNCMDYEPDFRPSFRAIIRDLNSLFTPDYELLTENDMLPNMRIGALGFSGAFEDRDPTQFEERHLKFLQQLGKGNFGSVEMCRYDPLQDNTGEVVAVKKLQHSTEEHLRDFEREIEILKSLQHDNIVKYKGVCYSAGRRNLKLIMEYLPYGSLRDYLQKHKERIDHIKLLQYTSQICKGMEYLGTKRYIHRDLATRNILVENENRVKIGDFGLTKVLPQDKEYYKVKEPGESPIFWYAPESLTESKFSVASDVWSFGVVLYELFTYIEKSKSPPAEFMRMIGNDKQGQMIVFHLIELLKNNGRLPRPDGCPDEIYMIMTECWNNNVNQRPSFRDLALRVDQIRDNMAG
Method: as §1, §2, §3

[3] = biological target: JAK1 (Homo sapiens, UniProt P23458); assay: JAK assay (KINASE-GLO luminescent kinase assay), JAK1
Chain of JAK1 (P23458 whole entry): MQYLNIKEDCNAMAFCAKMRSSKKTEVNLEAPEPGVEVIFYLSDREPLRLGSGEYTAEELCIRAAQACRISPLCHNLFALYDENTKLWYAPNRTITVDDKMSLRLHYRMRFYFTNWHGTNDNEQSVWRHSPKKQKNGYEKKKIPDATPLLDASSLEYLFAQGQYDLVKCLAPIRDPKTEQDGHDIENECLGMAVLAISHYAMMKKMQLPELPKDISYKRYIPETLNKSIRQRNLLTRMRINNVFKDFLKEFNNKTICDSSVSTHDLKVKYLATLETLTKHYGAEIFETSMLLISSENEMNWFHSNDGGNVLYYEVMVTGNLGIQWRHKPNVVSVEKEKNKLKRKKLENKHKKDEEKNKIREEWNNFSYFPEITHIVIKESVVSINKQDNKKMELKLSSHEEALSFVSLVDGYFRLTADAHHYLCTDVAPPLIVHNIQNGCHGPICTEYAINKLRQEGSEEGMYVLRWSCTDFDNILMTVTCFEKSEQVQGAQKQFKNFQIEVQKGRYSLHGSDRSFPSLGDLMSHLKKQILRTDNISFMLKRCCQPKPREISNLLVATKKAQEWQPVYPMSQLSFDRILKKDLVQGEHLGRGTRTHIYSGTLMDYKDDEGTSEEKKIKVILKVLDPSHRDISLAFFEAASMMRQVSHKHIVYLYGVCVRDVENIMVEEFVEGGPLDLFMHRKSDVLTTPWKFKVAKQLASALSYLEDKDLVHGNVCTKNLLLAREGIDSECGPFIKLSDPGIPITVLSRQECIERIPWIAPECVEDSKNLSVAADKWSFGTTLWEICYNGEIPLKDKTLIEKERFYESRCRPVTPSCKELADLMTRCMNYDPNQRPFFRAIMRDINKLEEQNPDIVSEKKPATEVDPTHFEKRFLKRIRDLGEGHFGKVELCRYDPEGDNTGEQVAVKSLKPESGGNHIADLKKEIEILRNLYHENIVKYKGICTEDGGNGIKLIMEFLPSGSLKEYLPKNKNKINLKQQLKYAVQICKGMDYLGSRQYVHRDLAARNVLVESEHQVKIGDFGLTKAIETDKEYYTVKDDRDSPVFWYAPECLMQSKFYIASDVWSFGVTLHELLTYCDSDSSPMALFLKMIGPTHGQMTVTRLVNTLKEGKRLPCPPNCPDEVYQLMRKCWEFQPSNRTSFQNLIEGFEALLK
Method: as §1, §2, §3

[4] = biological target: TYK2 (Homo sapiens, UniProt P29597); assay: JAK assay (KINASE-GLO luminescent kinase assay), TYK2
Chain of TYK2 (P29597 whole entry): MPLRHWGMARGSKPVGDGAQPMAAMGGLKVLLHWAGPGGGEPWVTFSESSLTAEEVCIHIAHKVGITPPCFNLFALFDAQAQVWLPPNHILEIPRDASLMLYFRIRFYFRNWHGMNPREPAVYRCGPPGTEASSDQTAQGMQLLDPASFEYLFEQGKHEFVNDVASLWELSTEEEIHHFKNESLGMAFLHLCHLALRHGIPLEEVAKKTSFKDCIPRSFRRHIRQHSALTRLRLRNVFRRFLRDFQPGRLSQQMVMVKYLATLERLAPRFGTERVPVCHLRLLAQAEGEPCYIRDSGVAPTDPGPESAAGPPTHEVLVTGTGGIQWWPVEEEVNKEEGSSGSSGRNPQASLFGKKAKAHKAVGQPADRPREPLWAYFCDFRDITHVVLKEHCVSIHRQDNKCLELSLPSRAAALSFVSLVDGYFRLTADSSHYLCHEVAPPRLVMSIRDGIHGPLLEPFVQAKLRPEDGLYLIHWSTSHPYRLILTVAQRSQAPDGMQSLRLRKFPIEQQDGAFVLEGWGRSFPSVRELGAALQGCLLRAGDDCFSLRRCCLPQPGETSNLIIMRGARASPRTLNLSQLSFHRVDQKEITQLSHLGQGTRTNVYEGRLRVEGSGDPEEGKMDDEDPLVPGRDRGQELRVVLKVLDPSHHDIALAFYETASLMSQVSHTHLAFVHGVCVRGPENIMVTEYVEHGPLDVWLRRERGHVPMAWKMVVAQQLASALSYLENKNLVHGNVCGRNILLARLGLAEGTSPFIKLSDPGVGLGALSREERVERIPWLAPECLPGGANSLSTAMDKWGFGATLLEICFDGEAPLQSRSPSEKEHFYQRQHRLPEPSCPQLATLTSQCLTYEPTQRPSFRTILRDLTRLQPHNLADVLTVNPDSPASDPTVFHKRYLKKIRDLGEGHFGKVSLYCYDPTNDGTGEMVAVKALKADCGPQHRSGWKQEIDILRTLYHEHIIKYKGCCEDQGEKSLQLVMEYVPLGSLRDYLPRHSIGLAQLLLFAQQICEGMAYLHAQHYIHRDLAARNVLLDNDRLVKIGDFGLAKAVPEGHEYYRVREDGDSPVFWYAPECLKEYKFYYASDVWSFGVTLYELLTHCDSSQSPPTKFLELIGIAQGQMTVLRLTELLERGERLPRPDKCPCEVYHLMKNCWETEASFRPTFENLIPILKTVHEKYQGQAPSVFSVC
Method: as §1, with “A 20 μL aliquot of the 10 mM solutions was transferred to individual wells in column 1 of a 96-well polypropylene microtiter plate (Corning #3363) and diluted with DMSO to give a final compound concentration of 4 mM.” left out
as §2, §3

| SMILES | IC50 [1] [nM] | IC50 [2] [nM] | IC50 [3] [nM] | IC50 [4] [nM] |
| --- | --- | --- | --- | --- |
| Cc1cnc(Nc2ccc(N3CCN(C)CC3)cc2)nc1-c1cnn(CC2(F)CC2)c1 [CN1CCN(CC1)C2═CC═C(NC3═NC(═C(C] | < 10 | < 10 | < 100 | < 10 |
| CN1CCN(c2ccc(Nc3ncc(Cl)c(-c4cnn(CC5(C#N)CC5)c4)n3)cn2)CC1 [CN1CCN(CC1)C2═NC═C(NC3═NC(═C] | < 100000 | < 1000 | < 100000 | < 100000 |
| Cc1cnc(Nc2ccc(CN3CCN(C)CC3)cc2)nc1-c1cnn(CC2(CF)CC2)c1 [CN1CCN(CC1)CC2═CC═C(NC3═NC] | < 100 | < 10 | < 1000 | < 100 |
| Cc1cnc(Nc2cccc(CN3CCN(C)CC3)c2)nc1-c1cnn(CC2(CF)CC2)c1 [CN1CCN(CC1)CC2═CC═CC(═C2)NC3═NC(═C] | < 100 | < 10 | < 1000 | < 1000 |
| Cc1cnc(Nc2cc(CN3CCN(C)CC3)ns2)nc1-c1cnn(CC2(CF)CC2)c1 [CN1CCN(CC1)CC2═NSC(═C2)NC3═NC] | < 100 | < 10 | < 1000 | < 100 |
| Cc1cnc(Nc2cc(COC(=O)CCN3CCN(C)CC3)ns2)nc1-c1cnn(CC2(CF)CC2)c1 [CN1CCN(CC1)CCC(═O)OCC2═NSC] | < 10 | < 10 | < 100 | < 10 |
| Cc1cnc(Nc2ccc3c(c2)OCCN3C)nc1-c1cnn(CC2(CF)CC2)c1 [CN1CCOC2═CC(═CC═C12)NC3═NC(═C] | < 100 | < 10 | < 100 | < 100 |
| Cc1cc(Nc2ncc(Cl)c(-c3cnn(CC4(N(C)C(=O)OC(C)(C)C)CC4)c3)n2)sn1 [CN(C(═O)OC(C)(C)C)C1(CC1)C[N]2C═C] | < 100 | < 100 | < 1000 | < 1000 |
| Cc1cnc(Nc2ccc(N3CC(N(C)C)C3)cc2)nc1-c1cnn(CC2(CF)CC2)c1 [CN(C)C1CN(C1)C2═CC═C(NC3═NC] | < 10 | < 10 | < 100 | < 100 |
| Cc1cnc(Nc2cccc(C(=O)N(C)C)c2)nc1-c1cnn(CC2(CF)CC2)c1 [CN(C)C(═O)C1═CC(═CC═C1)NC2═NC] | < 100 | < 10 | < 100 | < 100 |
| Cc1cnc(Nc2ccc(C(=O)N(C)C)cc2)nc1-c1cnn(CC2(CF)CC2)c1 [CN(C)C(═O)C1═CC═C(NC2═NC(═C] | < 100 | < 10 | < 100 | < 100 |
| Cc1cc(Nc2ncc(C)c(-c3cnn(CC4(CN(C)C)CC4)c3)n2)sn1 [CN(C)CC1(CC1)C[N]2C═C(C═N2)C3═C] | < 100 | < 10 | < 100 | < 100 |
| Cc1cnc(Nc2ccnc(CN(C)C)c2)nc1-c1cnn(CC2(CF)CCC2)c1 [CN(C)CC1═CC(═CC═N1)NC2═NC(═C] | < 100 | < 10 | < 1000 | < 100 |
| Cc1cnc(Nc2cc(CN(C)C)ns2)nc1-c1cnn(CC2(CF)CC2)c1 [CN(C)CC1═NSC(═C1)NC2═NC(═C] | < 100 | < 10 | < 100 | < 10 |
| Cc1cnc(Nc2cccc(CNC(=O)CN(C)C)c2)nc1-c1cnn(CC2(CF)CC2)c1 [CN(C)CC(═O)NCC1═CC═CC(═C1)NC2═NC] | < 10 | < 10 | < 100 | < 100 |
| Cc1cnc(Nc2ccc(CCN(C)C)cc2)nc1-c1cnn(CC2(CF)CC2)c1 [CN(C)CCC1═CC═C(NC2═NC(═C] | < 100 | < 10 | < 1000 | < 100 |
| Cc1cnc(Nc2ccc(CNC(=O)CCN(C)C)cc2)nc1-c1cnn(CC2(CF)CC2)c1 [CN(C)CCC(═O)NCC1═CC═C(NC2═NC(═C] | < 100 | < 10 | < 100 | < 100 |
| Cc1cnc(Nc2cc(CNC(=O)CCN(C)C)ns2)nc1-c1cnn(CC2(CF)CC2)c1 [CN(C)CCC(═O)NCC1═NSC(═C1)NC2═NC] | < 10 | < 10 | < 10 | < 10 |
